From ChEMBL document CHEMBL5033995, “Discovery and Early Clinical Development of LY3202626, a Low-Dose, CNS-Penetrant BACE Inhibitor” (J Med Chem, 2021)

Experiments:
[1] = Ratio of free drug concentration in CSF to plasma of dog; assay type: ADME, Canis lupus familiaris; settings: CSF and plasma
[2] = Volume of distribution at steady state in rat at 2 mg/kg, iv by LC-MS/MS analysis; assay type: ADME, organism-based; settings: in vivo, read-out: Vdss
[3] = Stability in rat liver microsomes at 2 uM measured upto 30 mins in presence of NADPH by LC-MS/MS analysis; assay type: ADME, Microsome; settings: read-out: Stability
[4] = Volume of distribution at steady state in dog at 1 mg/kg, iv by LC-MS/MS analysis; assay type: ADME, organism-based, Canis lupus familiaris; settings: in vivo, read-out: Vdss
[5] = Permeability in MDCK cells; assay type: ADME, cell-based, Canis lupus familiaris; settings: dog, read-out: permeability
[6] = Stability in mouse liver microsomes at 2 uM measured upto 30 mins in presence of NADPH by LC-MS/MS analysis; assay type: ADME, Microsome; settings: read-out: Stability
[7] = Bioavailability in rat; assay type: ADME, organism-based; settings: in vivo
[8] = Lipophilicity, log P of the compound; assay type: physicochemical; settings: octanol/water
[9] = Dissociation constant, pKa of compound; assay type: physicochemical
[10] = Stability in human liver microsomes at 2 uM measured upto 30 mins in presence of NADPH by LC-MS/MS analysis; assay type: ADME, Microsome; settings: read-out: Stability
[11] = Clearance in dog at 1 mg/kg, iv by LC-MS/MS analysis; assay type: ADME, organism-based, Canis lupus familiaris; settings: in vivo
[12] = Clearance in rat at 2 mg/kg, iv by LC-MS/MS analysis; assay type: ADME, organism-based; settings: in vivo
[13] = Stability in dog liver microsomes at 2 uM measured upto 30 mins in presence of NADPH by LC-MS/MS analysis; assay type: ADME, Canis lupus familiaris, Microsome; settings: read-out: Stability
[14] = Drug accumulation in human HepG2 cells lysosomes assessed as maximum fluorescence response after 24 hrs by Lysotracker Green DND-26 dye based assay; assay type: ADME, cell-based; settings: hepg2, 24 h
clinical = settings: human, CSF and plasma
[15] = Oral clearance in human; assay type: ADME

Kp uu [1]	Vd [2] [L/kg]	remaining at 0.5 h, 2 µM [3] [%]	Vd [4] [L/kg]	Papp [5] [×10⁻⁶ cm/s]	remaining at 0.5 h, 2 µM [6] [%]	bioavailability [7] [%]	logP [8]	pKa [9]	remaining at 0.5 h, 2 µM [10] [%]	clearance [11] [mL/min/kg]	clearance [12] [mL/min/kg]	remaining at 0.5 h, 2 µM [13] [%]	Rmax [14]	Kp uu (clinical)	CL/F [15] [mL/min/kg]	SMILES
		98		36	98				31			79				C[C@@H]1C[C@H]1COC(C)(C)[C@@H]1C[C@H]1[C@]12CN(c3ncccn3)C[C@H]1CSC(N)=N2
		55		8	33		2	8	13			28				C[C@@H]1C[C@H]1CNC(=O)[C@@H]1C[C@H]1[C@]12CN(c3ncccn3)C[C@H]1CSC(N)=N2
		84		14	23		0.8	8	19			8				C[C@@H]1C[C@H]1CNC(=O)[C@@H]1C[C@H]1[C@]12COC[C@H]1CSC(N)=N2
				59			1.9	7.6								Cl.Cl.NC1=N[C@@]2(c3cccs3)CN(c3ncccn3)C[C@H]2CS1
				54			0.8	7.1					59			Cl.NC1=N[C@@]2(c3cnccn3)CN(c3ncc(F)cn3)C[C@H]2CS1
				60			2.4	7.5					4090			Cl.NC1=N[C@@]2(c3cccs3)CN(c3ncc(F)cn3)C[C@H]2CS1

The remaining lines, values behind:

SMILES	Kp uu [1]	Vd [2] [L/kg]	remaining at 0.5 h, 2 µM [3] [%]	Vd [4] [L/kg]	Papp [5] [×10⁻⁶ cm/s]	remaining at 0.5 h, 2 µM [6] [%]	bioavailability [7] [%]	logP [8]	pKa [9]	remaining at 0.5 h, 2 µM [10] [%]	clearance [11] [mL/min/kg]	clearance [12] [mL/min/kg]	remaining at 0.5 h, 2 µM [13] [%]	Rmax [14]	Kp uu (clinical)	CL/F [15] [mL/min/kg]
NC1=N[C@@]2(c3cc(NC(=O)c4ncc(F)cc4F)ccc3F)CN(c3ncc(F)cn3)C[C@H]2CS1	0.2	2.2	7	0.52	30	22	55	2.8	7.7	13	2.7	15	7			
Cl.NC1=N[C@@]2(c3ccns3)CN(c3ncc(F)cn3)C[C@H]2CS1	1	2.87		2.1	59			1.3	6.4		6	53.2		20		
Cl.N#Cc1ccc([C@]23CN(c4ncc(F)cn4)C[C@H]2CSC(N)=N3)s1								2.3	6.6					91		
COc1cnc(C(=O)Nc2ccc(F)c([C@]34CN(c5ncc(F)cn5)C[C@H]3CSC(N)=N4)c2)cn1	0.9	5.2	7	0.78	19	27	47	3.2	7.6	12	5.2	20	50		1	26
NC1=N[C@@]2(c3cc(NC(=O)c4ccc(F)cn4)ccc3F)CN(c3ncc(F)cn3)C[C@H]2CS1 (relative stereo)	0.1	2.5	16	1.1	33	25	72	3.1	7.9	13	1.6	7.8	8			
C[C@@]1(c2cc(-c3cncnc3)c(F)cc2F)CCSC(N)=N1 [LY-2811376]					60			2.9	8.8					3364		
NC1=N[C@@]2(c3cc(NC(=O)c4ccc(F)cn4)ccc3F)COC[C@H]2CS1 [LY-2886721]	0.9	10.4	19	2.3	55	33	30	2.1	7.7	11	4.9	94	0	7863		
